23 compounds from USRE47689E1, “Compounds for treating spinal muscular atrophy” (PTC Therapeutics, Inc., priority 2011, dated 2019) can be followed below.

Structures can show the parent of a compound that is named as a salt. A value given as a limit tells only on which side of the number the result lay.

Experiment [1] has as its system SMN2 minigene (full length SMN2 minigene mRNA containing SMN2 exon 7). Put plainly: SMN2 minigene mRNA splicing RT-qPCR assay in cultured cells. In kind it is cell-based, human. The following applies: HEK293H cells stably transfected with SMN2-A minigene, 24 hours, 7-point concentration curve, 1.5-fold relative to vehicle-treated cells; for EC (1.5-fold): Homo sapiens, HEK293-H, read-out: EC1.5x for production of full length SMN2 mRNA. Put shortly: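 HEK293H cells stably carrying the SMN2-A minigene treated 24 h at 37° C with compound (DMSO, 200× stock), then lysed. Multiplex RT-qPCR (SMN primers 0.4 μM final; 40 cycles) measures full-length exon 7-containing minigene mRNA, normalized to GAPDH and to vehicle; EC1.5x derived and binned by stars.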
A general note: In qPCR the cycle at which signal appears reflects the starting amount.

The subject of a further experiment is Smn protein. Description: Smn protein assay in cultured cells (SMN HTRF). The format is cell-based, human. The following applies: 48 hours; for EC1.5x (concentration giving 1.5-fold Smn protein increase): SMA Type 1 patient fibroblast cells (GM03813), 7-point concentration curve, SMN HTRF, concentration producing 1.5 times Smn protein vs DMSO vehicle control, read-out: EC1.5x for Smn protein expression; for maximum fold (Fold) increase of Smn protein: SMA patient fibroblast cells, 7-point concentration data, fold increase relative to vehicle control (SMN HTRF). Put shortly:
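Lysates in RIPA with protease inhibitors are incubated overnight at room temperature with HTRF anti-SMN antibodies. EC1.5x is derived from fold increase in ΔF over vehicle.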
In general terms: In TR-FRET formats the signal depends on donor and acceptor labels being close together.

As to `Cc1cn2cc(-c3cc4c(F)cc(N5CCN(C)[C@@H](C)C5)cc4oc3=O)nc2cn1` [Compound 659, 7-[(3S)-3,4-dimethylpiperazin-1-yl]-5-fluoro-3-(6-methylimidazo[1,2-a]pyrazin-2-yl)-2H-chromen-2-one], the EC (1.5-fold) in experiment [1] was less than 0.1 µM. In the experiment on Smn protein, the EC1.5x (concentration giving 1.5-fold Smn protein increase) is less than 300 nM; the “maximum fold (Fold) increase of Smn protein” value (from here on “maximum fold (Fold) increase”) is “**** (fold increase between >1.5 and ≤1.65)”.
Regarding `Cc1cn2cc(-c3cc4ccc(N5CCN(C)CC5)cc4oc3=O)nc2cn1` [Compound 568, 3-(6-methylimidazo[1,2-a]pyrazin-2-yl)-7-(4-methylpiperazin-1-yl)-2H-chromen-2-one], the EC (1.5-fold) in experiment [1] was less than 0.1 µM. Further, in the experiment with Smn protein, the EC1.5x (concentration giving 1.5-fold Smn protein increase) was less than 300 nM and the “maximum fold (Fold) increase” value is “***** (fold increase >1.65)”.
For `CCN1[C@H](C)CN(c2ccc3cc(-c4cn5cc(C)ncc5n4)c(=O)oc3c2)C[C@@H]1C` [Compound 797, 7-[(3R,5S)-4-ethyl-3,5-dimethylpiperazin-1-yl]-3-(6-methylimidazo[1,2-a]pyrazin-2-yl)-2H-chromen-2-one], in experiment [1], the EC (1.5-fold) was less than 0.1 µM. In the experiment with Smn protein, the EC1.5x (concentration giving 1.5-fold Smn protein increase) is less than 300 nM; the “maximum fold (Fold) increase” value is “**** (fold increase between >1.5 and ≤1.65)”.
Consider `CN1CCCN(c2ccc3cc(-c4cn5ccncc5n4)c(=O)oc3c2)CC1` [Compound 455, 3-(imidazo[1,2-a]pyrazin-2-yl)-7-(4-methyl-1,4-diazepan-1-yl)-2H-chromen-2-one], for which, in experiment [1], the EC (1.5-fold) was less than 0.1 µM. Besides, in the experiment on Smn protein, the EC1.5x (concentration giving 1.5-fold Smn protein increase) lay within 300 to 1000 nM; the “maximum fold (Fold) increase” value is “**** (fold increase between >1.5 and ≤1.65)”.
Consider `O=C(O)C(F)(F)F.O=c1oc2cc(N3CCNCC3)ccc2cc1-c1nc2c(C(F)(F)F)cccc2o1` [Compound 1, 7-(piperazin-1-yl)-3[4-(trifluoromethyl)-1,3-benzoxazol-2-yl]-2H-chromen-2-one trifluoroacetate], for which the EC (1.5-fold) in experiment [1] lay within 0.3 to 1 µM. For the same compound, in the experiment with Smn protein, the “maximum fold (Fold) increase” value was “* (maximum fold increase of ≤1.2)”.
`Cc1cc2cc(-c3cc4ccc(N5CCN(C6CC6)CC5)cc4oc3=O)oc2c(C)n1` [Compound 798, 7-(4-cyclopropylpiperazin-1-yl)-3-(5,7-dimethylfuro[2,3-c]pyridin-2-yl)-2H-chromen-2-one]: in experiment [1], the EC (1.5-fold) fell in the range of 0.1 to 0.3 µM. Besides, in the experiment on Smn protein, the EC1.5x (concentration giving 1.5-fold Smn protein increase) fell in the range of 300 to 1000 nM; the “maximum fold (Fold) increase” value was “**** (fold increase between >1.5 and ≤1.65)”.
In the case of `Cc1cn2cc(-c3cc4ccc(N5CCNCC5)cc4oc3=O)ccc2n1` [Compound 677, 3-(2-methylimidazo[1,2-a]pyridin-6-yl)-7-(piperazin-1-yl)-2H-chromen-2-one], in experiment [1], the EC (1.5-fold) was less than 0.1 µM. Also, in the experiment with Smn protein, the EC1.5x (concentration giving 1.5-fold Smn protein increase) is less than 300 nM; the “maximum fold (Fold) increase” value was “**** (fold increase between >1.5 and ≤1.65)”.
Regarding `CCCN1CCN(c2ccc3cc(-c4cc5ccccn5n4)c(=O)oc3c2)CC1` [Compound 195, 7-(4-propylpiperazin-1-yl)-3-(pyrazolo[1,5-a]pyridin-2-yl)-2H-chromen-2-one], in experiment [1], the EC (1.5-fold) fell in the range of 1 to 3 µM. Moreover, the “maximum fold (Fold) increase” value in the experiment with Smn protein was “* (maximum fold increase of ≤1.2)”.
For `Cc1ccn2cc(-c3cc4ccc(O[C@@H]5CCNC5)cc4oc3=O)nc2c1` [Compound 323, 3-(7-methylimidazo[1,2-a]pyridin-2-yl)-7-[(3R)-pyirolidin-3-yloxy]-2H-chromen-2-one hydrochloride (1:2)], the EC (1.5-fold) in experiment [1] was 0.3 to 1 µM. The “maximum fold (Fold) increase” value in the experiment with Smn protein was “** (fold increase between >1.2 and ≤1.35)”.
Regarding `CC(=O)O.Cc1ccn2cc(-c3cc4ccc(N(C)C5CCN(Cc6ccccc6)C5)cc4oc3=O)nc2n1` (stereo not shown) [Compound 377, 7-[(1-benzylpyrrolidin-3-yl)(methyl)amino]-3-(7-methylimidazo[1,2-a]pyrimidin-2-yl)-2H-chromen-2-one acetate], the EC (1.5-fold) in experiment [1] was 0.3 to 1 µM. Also, the “maximum fold (Fold) increase” value in the experiment on Smn protein is reported as “* (maximum fold increase of ≤1.2)”.
Take `COc1ccc(-c2cc3ccc(N4CCN(C)CC4)cc3oc2=O)cc1OC` [Compound 317, 3-(3,4-dimethoxyphenyl)-7-(4-methylpiperazin-1-yl)-2H-chromen-2-one]: in experiment [1], the EC (1.5-fold) was in the range of 3 to 30 µM. For the same compound, the “maximum fold (Fold) increase” value in the experiment on Smn protein is “* (maximum fold increase of ≤1.2)”.
On to `CN(C)[C@H]1[C@@H]2CN(c3ccc4cc(-c5cn6cccnc6n5)c(=O)oc4c3)C[C@@H]21` [Compound 439, 7-[(1R,5S,6s)-6-(dimethylamino)-3-azabicyclo[3.1.0]hex-3-yl]-3-(imidazo[1,2-a]pyrimidin-2-yl)-2H-chromen-2-one], for which the “EC1.5x for production of full length SMN2 mRNA” value (shortened to “EC1.5x for production”) in experiment [1] is “* (between >3 μM and ≤30 μM)”. Further, the “maximum fold (Fold) increase” value with Smn protein is “** (fold increase between >1.2 and ≤1.35)”.
As for `Cc1cc2oc(-c3cc4ccc(N5CCNCC5)cc4oc3=O)cc2c(C)n1` [Compound 831, 3-(4,6-dimethylfuro[3,2-c]pyridin-2-yl)-7-(piperazin-1-yl)-2H-chromen-2-one], the EC (1.5-fold) in experiment [1] lay within 1 to 3 µM. In the experiment with Smn protein, the “maximum fold (Fold) increase” value is reported as “* (maximum fold increase of ≤1.2)”.
`Cc1cn2cc(-c3cc4ccc(N5CCN[C@@H](C)C5)cc4oc3=O)nc2c(C)n1` [Compound 537, 3-(6,8-dimethylimidazo[1,2-a]pyrazin-2-yl)-7-[(3S)-3-methylpiperazin-1-yl]-2H-chromen-2-one]: in experiment [1], the EC (1.5-fold) was less than 0.1 µM. In the experiment with Smn protein, the EC1.5x (concentration giving 1.5-fold Smn protein increase) was less than 300 nM and the “maximum fold (Fold) increase” value is “***** (fold increase >1.65)”.
In the case of `CN1CCN(c2ccc3cc(-c4ccc5nccn5c4)c(=O)oc3c2)CC1` [Compound 978, 3-(imidazo[1,2-a]pyridin-6-yl)-7-(4-methylpiperazin-1-yl)-2H-chromen-2-one], the EC (1.5-fold) in experiment [1] lay in the range of 1 to 3 µM. Also, the “maximum fold (Fold) increase” value with Smn protein is “** (fold increase between >1.2 and ≤1.35)”.
For the compound `Cc1cn2cc(-c3cc4ccc(N5C[C@@H]6CCCN(C)[C@@H]6C5)cc4oc3=O)nc2c(C)n1` [Compound 795, 3-(6,8-dimethylimidazo[1,2-a]pyrazin-2-yl)-7-[(4aS,7aS)-1-methyloctahydro-6H-pyrrolo[3,4-b]pyridin-6-yl]-2H-chromen-2-one], the EC (1.5-fold) in experiment [1] is less than 0.1 µM. In addition, in the experiment with Smn protein, the EC1.5x (concentration giving 1.5-fold Smn protein increase) was less than 300 nM; the “maximum fold (Fold) increase” value is “**** (fold increase between >1.5 and ≤1.65)”.
Take `Cc1cn2cc(-c3cc4ccc(N5CCN[C@@H](C)C5)cc4oc3=O)cc(F)c2n1` [Compound 984, 3-(8-fluoro-2-methylimidazo[1,2-a]pyridin-6-yl)-7-[(3S)-3-methylpiperazin-1-yl]-2H-chromen-2-one]: in experiment [1], the EC (1.5-fold) is less than 0.1 µM. Also, in the experiment with Smn protein, the EC1.5x (concentration giving 1.5-fold Smn protein increase) is less than 300 nM and the “maximum fold (Fold) increase” value is recorded as “***** (fold increase >1.65)”.
Regarding `Cc1nc(Cl)cn2cc(-c3cc4ccc(N5C[C@@H]6C[C@H]5CN6)cc4oc3=O)nc12` [Compound 780, 3-(6-chloro-8-methylimidazo[1,2-a]pyrazin-2-yl)-7-[(1S,4S)-2,5-diazabicyclo[2.2.1]hept-2-yl]-2H-chromen-2-one], in experiment [1], the EC (1.5-fold) was less than 0.1 µM. Moreover, in the experiment with Smn protein, the EC1.5x (concentration giving 1.5-fold Smn protein increase) is less than 300 nM; the “maximum fold (Fold) increase” value was “**** (fold increase between >1.5 and ≤1.65)”.
With `Cc1cn2cc(-c3cc4ccc(C5CCN(C6COC6)CC5)cc4oc3=O)nc2cn1` [Compound 878, 3-(6-methylimidazo[1,2-a]pyrazin-2-yl)-7-[1-(oxetan-3-yl)piperidin-4-yl]-2H-chromen-2-one], the EC (1.5-fold) in experiment [1] was less than 0.1 µM. Besides, in the experiment on Smn protein, the EC1.5x (concentration giving 1.5-fold Smn protein increase) was in the range of 300 to 1000 nM and the “maximum fold (Fold) increase” value was “***** (fold increase >1.65)”.
As for `Cc1cn2cc(-c3cc4ccc(N5CCC(CNC(C)C)CC5)cc4oc3=O)cc2c(C)n1` [Compound 790, 3-(1,3-dimethylpyrrolo[1,2-a]pyrazin-7-yl)-7-{4-[(propan-2-ylamino)methyl]piperidin-1-yl}-2H-chromen-2-one], in experiment [1], the EC (1.5-fold) lay within 0.3 to 1 µM. In addition, the “maximum fold (Fold) increase” value in the experiment with Smn protein is “** (fold increase between >1.2 and ≤1.35)”.
Take “3-(6-chloroimidazo[1,2-a]pyrimidin-2-yl)-7-(piperazin-1-yl)-2H-chromen-2-one [Compound 348]”: the “EC1.5x for production” value in experiment [1] is “** (between >1 μM and ≤3 μM)”. Also, the “maximum fold (Fold) increase” value in the experiment with Smn protein is recorded as “* (maximum fold increase of ≤1.2)”.
Take `Cc1nc2ccc(-c3cc4ccc(N5CCN(C)[C@@H](C)C5)cc4oc3=O)cc2s1` [Compound 776, 7-[(3S)-3,4-dimethylpiperazin-1-yl]-3-(2-methyl-1,3-benzothiazol-6-yl)-2H-chromen-2-one acetate (2:1)]: the EC (1.5-fold) in experiment [1] is 1 to 3 µM. Moreover, the “maximum fold (Fold) increase” value with Smn protein was “** (fold increase between >1.2 and ≤1.35)”.
On to “7-(1,4-diazepan-1-yl)-3-(6-methylimidazo[1,2-a]pyrazin-2-yl)-2H-chromen-2-one [Compound 477]”, for which, in experiment [1], the “EC1.5x for production” value is listed as “***** (EC1.5x≤0.1 μM)”. Also, in the experiment on Smn protein, the EC1.5x (concentration giving 1.5-fold Smn protein increase) was less than 300 nM and the “maximum fold (Fold) increase” value is reported as “***** (fold increase >1.65)”.
